According to PubChem BioAssay AID248 (DTP/NCI, 2004):
“And” between values parts separate entries of the source, which are not always exact repeats. Identical values can stand only once. Toxic doses and inconclusive results are not listed. Cut-off read from the data, not from the text of the source: active = T/C of 150% or more; inactive = T/C below 125%.

System: L1210 leukemia ip in BDF1 mice, survival T/C
Assay: NCI In Vivo Anticancer Drug Screen. Data for tumor model L1210 Leukemia (intraperitoneal) in B6D2F1 (BDF1) mice
Conditions: endpoint: mean survival time, higher = longer survival
Procedure, shortened: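 Antitumor effect is assessed in tumor-bearing animals. Survival in the compound arm is compared with a vehicle-dosed control arm and expressed as their quotient.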

[1] = dose: 100.0 mg/kg/injection, schedule: Q01DX009 (ip), vehicle: other
[2] = dose: 100.0 mg/kg/injection, schedule: Q04DX003 (ip), vehicle: saline
[3] = dose: 200.0 mg/kg/injection, schedule: Q01DX009 (ip), vehicle: other
[4] = dose: 400.0 mg/kg/injection, schedule: Q01DX009 (ip), vehicle: other
[5] = dose: 100.0 mg/kg/injection, schedule: Q01DX001 (ip), vehicle: carboxymethylcellulose (CMC)
[6] = dose: 200.0 mg/kg/injection, schedule: Q01DX001 (ip), vehicle: carboxymethylcellulose (CMC)
[7] = dose: 400.0 mg/kg/injection, schedule: Q01DX001 (ip), vehicle: carboxymethylcellulose (CMC)
[8] = dose: 100.0 mg/kg/injection, schedule: Q01DX009 (ip), vehicle: saline with Tween-80
[9] = dose: 200.0 mg/kg/injection, schedule: Q01DX009 (ip), vehicle: saline with Tween-80
[10] = dose: 400.0 mg/kg/injection, schedule: Q01DX009 (ip), vehicle: saline with Tween-80
[11] = dose: 100.0 mg/kg/injection, schedule: Q04DX003 (ip), vehicle: saline with Tween-80
[12] = dose: 200.0 mg/kg/injection, schedule: Q04DX003 (ip), vehicle: saline with Tween-80
[13] = dose: 100.0 mg/kg/injection, schedule: Q01DX009 (ip), vehicle: Klucel (hydroxypropylcellulose) (HPC)
[14] = dose: 100.0 mg/kg/injection, schedule: Q01DX001 (ip), vehicle: Klucel (hydroxypropylcellulose) (HPC)
[15] = dose: 100.0 mg/kg/injection, schedule: Q01DX001 (ip), vehicle: saline
[16] = dose: 200.0 mg/kg/injection, schedule: Q01DX001 (ip), vehicle: Klucel (hydroxypropylcellulose) (HPC)
[17] = dose: 400.0 mg/kg/injection, schedule: Q01DX001 (ip), vehicle: Klucel (hydroxypropylcellulose) (HPC)
[18] = dose: 400.0 mg/kg/injection, schedule: Q01DX001 (ip), vehicle: saline
[19] = dose: 100.0 mg/kg/injection, schedule: Q04DX003 (ip), vehicle: Klucel (hydroxypropylcellulose) (HPC)
[20] = dose: 200.0 mg/kg/injection, schedule: Q04DX003 (ip), vehicle: Klucel (hydroxypropylcellulose) (HPC)

Measured: T/C

COc1ccc(Br)cc1/C=N\NS(=O)(=O)c1ccc(C)cc1
inactive: [1] 100 % of control | [2] 96 % of control | [3] 105 % of control | dose: 200.0 mg/kg/injection, schedule: Q04DX003 (ip), vehicle: saline 96 % of control | [4] 114 % of control | dose: 400.0 mg/kg/injection, schedule: Q04DX003 (ip), vehicle: saline 93 % of control

COc1c(OCC=C(C)C)cc2c(c1O)c(=O)c1ccccc1n2C
inactive: [5] 100 % of control | [6] 93 % of control | [7] 98 % of control

CC(Oc1ccccc1)C(=O)NC(=S)Nc1cc(C(F)(F)F)ccc1Cl (centres undefined)
inactive: dose: 50.0 mg/kg/injection, schedule: Q01DX009 (ip), vehicle: other 101 % of control and 103 % of control | dose: 100.0 mg/kg/injection, schedule: Q01DX001 (ip), vehicle: other 105 % of control | [1] 100 % of control and 92 % of control | dose: 100.0 mg/kg/injection, schedule: Q04DX002 (ip), vehicle: other 97 % of control and 110 % of control | dose: 200.0 mg/kg/injection, schedule: Q01DX001 (ip), vehicle: other 100 % of control | [3] 95 % of control and 92 % of control | dose: 200.0 mg/kg/injection, schedule: Q04DX002 (ip), vehicle: other 98 % of control and 106 % of control | dose: 400.0 mg/kg/injection, schedule: Q01DX001 (ip), vehicle: other 94 % of control | [4] 87 % of control | dose: 400.0 mg/kg/injection, schedule: Q04DX002 (ip), vehicle: other 97 % of control and 116 % of control

CCCCCCC(=O)/C=C/c1cccc(Cl)c1
inactive: [8] 88 % of control | [9] 88 % of control | [10] 95 % of control

Oc1cc2c(O)cccc2c2ccccc12
inactive: [11] 92 % of control | [12] 90 % of control

CCCCNc1cc2c3c(c1)CCCN3CCC2
inactive: dose: 12.5 mg/kg/injection, schedule: Q01DX009 (ip), vehicle: saline 107 % of control | dose: 12.5 mg/kg/injection, schedule: Q04DX003 (ip), vehicle: saline 95 % of control | dose: 25.0 mg/kg/injection, schedule: Q01DX009 (ip), vehicle: saline 103 % of control | dose: 25.0 mg/kg/injection, schedule: Q04DX003 (ip), vehicle: saline 98 % of control | dose: 50.0 mg/kg/injection, schedule: Q04DX003 (ip), vehicle: saline 95 % of control

CC(C)=CCN(CC=C(C)C)CCC(C#N)(c1cccc2ccccc12)C(C)C (centres undefined)
inactive: dose: 25.0 mg/kg/injection, schedule: Q01DX009 (ip), vehicle: Klucel (hydroxypropylcellulose) (HPC) 101 % of control | [13] 93 % of control

COc1ccc(C(N)C(=O)O)cc1 (centres undefined)
inactive: dose: 50.0 mg/kg/injection, schedule: Q01DX001 (ip), vehicle: saline 94 % of control | dose: 75.0 mg/kg/injection, schedule: Q01DX009 (ip), vehicle: Klucel (hydroxypropylcellulose) (HPC) 110 % of control | [14] 96 % of control | [15] 94 % of control | dose: 150.0 mg/kg/injection, schedule: Q01DX009 (ip), vehicle: Klucel (hydroxypropylcellulose) (HPC) 113 % of control | [16] 97 % of control | dose: 200.0 mg/kg/injection, schedule: Q01DX001 (ip), vehicle: saline 96 % of control | dose: 300.0 mg/kg/injection, schedule: Q01DX009 (ip), vehicle: Klucel (hydroxypropylcellulose) (HPC) 101 % of control | [17] 92 % of control | [18] 96 % of control

CCC(=O)Nc1cccc(OC(=O)N(C)C)c1
inactive: [11] 100 % of control | [12] 98 % of control | dose: 400.0 mg/kg/injection, schedule: Q04DX003 (ip), vehicle: saline with Tween-80 100 % of control

Nc1ccc(N=Nc2ccccc2)c(N)n1
inactive: [19] 89 % of control | [2] 97 % of control | [20] 90 % of control

OCCOc1nc(OCCO)c(Cl)c(C(Cl)(Cl)Cl)n1
inactive: [8] 98 % of control | [9] 93 % of control | [10] 86 % of control

CC12CCCCC1(OC(=O)c1ccc([N+](=O)[O-])cc1)CCCC2 (centres undefined)
inactive: dose: 75.0 mg/kg/injection, schedule: Q04DX002 (ip), vehicle: saline with Tween-80 100 % of control | dose: 150.0 mg/kg/injection, schedule: Q04DX002 (ip), vehicle: saline with Tween-80 104 % of control | dose: 300.0 mg/kg/injection, schedule: Q04DX002 (ip), vehicle: saline with Tween-80 88 % of control

Cc1ccccc1SC(=O)Nc1cc([N+](=O)[O-])ccc1Cl
inactive: [5] 94 % of control and 90 % of control | dose: 100.0 mg/kg/injection, schedule: Q01DX009 (ip), vehicle: carboxymethylcellulose (CMC) 96 % of control | dose: 100.0 mg/kg/injection, schedule: Q04DX002 (ip), vehicle: carboxymethylcellulose (CMC) 97 % of control and 99 % of control | dose: 100.0 mg/kg/injection, schedule: Q04DX003 (ip), vehicle: carboxymethylcellulose (CMC) 89 % of control | [6] 94 % of control and 88 % of control | dose: 200.0 mg/kg/injection, schedule: Q01DX009 (ip), vehicle: carboxymethylcellulose (CMC) 98 % of control | dose: 200.0 mg/kg/injection, schedule: Q04DX002 (ip), vehicle: carboxymethylcellulose (CMC) 94 % of control and 101 % of control | dose: 200.0 mg/kg/injection, schedule: Q04DX003 (ip), vehicle: carboxymethylcellulose (CMC) 96 % of control and 91 % of control | [7] 97 % of control and 90 % of control | dose: 400.0 mg/kg/injection, schedule: Q01DX009 (ip), vehicle: carboxymethylcellulose (CMC) 94 % of control | dose: 400.0 mg/kg/injection, schedule: Q04DX002 (ip), vehicle: carboxymethylcellulose (CMC) 95 % of control and 101 % of control | dose: 400.0 mg/kg/injection, schedule: Q04DX003 (ip), vehicle: carboxymethylcellulose (CMC) 96 % of control and 92 % of control

O=C(Nc1cccc(C(F)(F)F)c1)Oc1ccc(F)cc1
inactive: [14] 104 % of control | [13] 107 % of control and 116 % of control | dose: 100.0 mg/kg/injection, schedule: Q04DX002 (ip), vehicle: Klucel (hydroxypropylcellulose) (HPC) 92 % of control | [19] 94 % of control | [16] 109 % of control | dose: 200.0 mg/kg/injection, schedule: Q01DX009 (ip), vehicle: Klucel (hydroxypropylcellulose) (HPC) 104 % of control and 115 % of control | dose: 200.0 mg/kg/injection, schedule: Q04DX002 (ip), vehicle: Klucel (hydroxypropylcellulose) (HPC) 93 % of control and 92 % of control | [20] 99 % of control | [17] 98 % of control | dose: 400.0 mg/kg/injection, schedule: Q01DX009 (ip), vehicle: Klucel (hydroxypropylcellulose) (HPC) 104 % of control and 113 % of control | dose: 400.0 mg/kg/injection, schedule: Q04DX002 (ip), vehicle: Klucel (hydroxypropylcellulose) (HPC) 102 % of control and 108 % of control | dose: 400.0 mg/kg/injection, schedule: Q04DX003 (ip), vehicle: Klucel (hydroxypropylcellulose) (HPC) 105 % of control

O=C1CCCN1C1CC2c3ccccc3C1c1cccc[n+]12 (centres undefined)
inactive: dose: 5.0 mg/kg/injection, schedule: Q01DX009 (ip), vehicle: saline sonified 94 % of control | dose: 10.0 mg/kg/injection, schedule: Q01DX009 (ip), vehicle: saline sonified 98 % of control | dose: 20.0 mg/kg/injection, schedule: Q01DX009 (ip), vehicle: saline sonified 97 % of control

Cc1cn(C2CC(O)C(CF)O2)c(=O)[nH]c1=O (centres undefined)
inactive: dose: 100.0 mg/kg/injection, schedule: Q01DX005 (ip), vehicle: saline 117 % of control | dose: 200.0 mg/kg/injection, schedule: Q01DX005 (ip), vehicle: saline 122 % of control

O=C(OC1COC(OC(=O)c2ccccc2)C(OC(=O)c2ccccc2)C1OC(=O)c1ccccc1)c1ccccc1 (centres undefined)
inactive: dose: 50.0 mg/kg/injection, schedule: Q01DX001 (ip), vehicle: carboxymethylcellulose (CMC) 96 % of control | [14] 102 % of control | dose: 100.0 mg/kg/injection, schedule: Q01DX001 (ip), vehicle: acetone 92 % of control | [5] 102 % of control and 103 % of control | [15] 90 % of control | [16] 102 % of control | dose: 200.0 mg/kg/injection, schedule: Q01DX001 (ip), vehicle: acetone 88 % of control | [6] 94 % of control and 91 % of control | [17] 109 % of control | dose: 400.0 mg/kg/injection, schedule: Q01DX001 (ip), vehicle: acetone 90 % of control | [7] 94 % of control | [18] 95 % of control
